Assay in all cases: inhibition of tumour cell growth, NCI panel, 48 h
Assay [1] deals with HL-60.
Assay [2] concerns SK-OV-3.
For assay [3], the system named is RPMI-8226.
In assay [4] the test system is OVCAR-8.
In assay [5] the test system is HOP-92.
Assay [6] concerns OVCAR-3.
Assay [7] deals with KM12.
Assay [8] relates to RXF 393.
The subject of assay [9] is CAKI-1.
Assay [10] concerns MCF7.
Assay [11] relates to OVCAR-4.
In assay [12] the test system is SK-MEL-5.
Assay [13] deals with UACC-62.
Assay [14] relates to SK-MEL-2.
For assay [15], the system named is NCI/ADR-RES.
Assay [16] relates to SR.
For assay [17], the system named is UO-31.
Assay [18] concerns LOX IMVI.
Assay [19] deals with HCT-15.
Assay [20] has as its system Hs-578T.

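48-hour exposure; five concentrations; linearly interpolated endpoints. GI50 marks 50% less growth.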 Activity calls are given as the source filed them. No stated cut-off is given here; in the data, active = GI50 up to about 1.1 µM and inactive = higher.

In the case of `CC1OC(OC2C(OC(=O)[C@]34CCC(C)(C)C[C@H]3C3=CC[C@@H]5[C@@]6(C)CC[C@H](OC7OC(CO)C(O)C(O)C7OC7OC(CO)C(O)C(O)C7O)C(C)(C)[C@@H]6CC[C@@]5(C)[C@]3(C)CC4)OCC(O)C2O)C(O)C(OC2OCC(O)C(O)C2O)C1OC1OCC(O)C(OC2OCC(O)C(O)C2O)C1O` (stereo not given in full), the GI50 in [1] is 3.94 µM (inactive); in assay [2], 32.2 µM (inactive); in [3], 7.69 µM (inactive); in assay [4], 18 µM (inactive); in [5], 6.84 µM (inactive); in assay [6], 23.4 µM (inactive). Besides, the GI50 in assay [7] is 7.31 µM (inactive); in assay [8], 16.4 µM (inactive); in assay [9], 6.67 µM (inactive); in assay [10] it was 7.71 µM (inactive); in assay [11], 10 µM (inactive); in assay [12], 9.4 µM (inactive). The GI50 is 13.5 µM (inactive) in [13]; 8.57 µM (inactive) in [14]; 11 µM (inactive) in [15]; 5.19 µM (inactive) in assay [16]; 2.14 µM (inactive) in [17]; 16.2 µM (inactive) in [18]. Moreover, the GI50 in [19] was 22.7 µM; in assay [20], 21.4 µM (inactive).

As for `COc1ccc2[nH]c3c(C)c4c(c(C)c3c2c1)CN(C)C=C4`, the GI50 in assay [1] is 22.4 µM (inactive); in assay [2] it was 7.23 µM (inactive); in assay [3], 7.24 µM (inactive); in [4] it was 0.309 µM (active); in assay [5], 2.79 µM (inactive); in assay [6] it was 4.53 µM (inactive). Further, the GI50 in [7] was 1.35 µM (inactive); in assay [8], 7.21 µM (inactive); in [9] it was 9.23 µM (inactive); in assay [10] it was 4.53 µM (inactive); in [11], 3.95 µM (inactive); in assay [12], 1.98 µM (inactive). The GI50 in assay [13] was 3.3 µM (inactive); in assay [14] it was 2.62 µM (inactive); in [15], 91.8 µM (inactive); in [16], 0.526 µM (active); in assay [17] it was 24.5 µM (inactive); in [18], 9.77 µM (inactive). For the same molecule, the values for the GI50 in assay [19] and in assay [20] were 23.4 µM and 0.24 µM (active), respectively.

As for `CCC/C(Cl)=N/OC(=O)Nc1cc(C(F)(F)F)ccc1OC`, the GI50 in [1] is 1.77 µM (inactive); in assay [2], 6.17 µM (inactive); in [3] it was 2.33 µM (inactive); in assay [4], 16.1 µM (inactive); in assay [5] it was 2.43 µM (inactive); in [6] it was 16.4 µM (inactive). In addition, the GI50 is 18.1 µM (inactive) in assay [7]; 6.31 µM (inactive) in [8]; 4.78 µM (inactive) in assay [9]; 12.4 µM (inactive) in assay [10]; 3.23 µM (inactive) in [11]; 7.93 µM (inactive) in [12]. The GI50 in assay [13] is 15.2 µM (inactive); in [14], 16.1 µM (inactive); in assay [15], 17.5 µM (inactive); in assay [16], 2.79 µM (inactive); in assay [17], 16.4 µM (inactive); in [18] it was 4.46 µM (inactive). Besides, the figures for the GI50 in [19] and in [20] were 5.31 µM and 27.1 µM (inactive), respectively.

Turning to `Fc1cc(-c2cc(-c3ccccc3)no2)c(Cl)cc1Cl`, the GI50 in assay [1] is 19.7 µM (inactive); in [2], > 32.5 µM (inactive); in assay [3], 6.93 µM (inactive); in assay [4], > 26.8 µM (inactive); in assay [5], 7.69 µM (inactive); in assay [6], 21.6 µM (inactive). Also, the GI50 was 16.2 µM (inactive) in [7]; 7.11 µM (inactive) in [8]; 34.5 µM (inactive) in assay [9]; 4.25 µM (inactive) in [10]; 22.9 µM (inactive) in assay [11]; 16.4 µM (inactive) in assay [12]. Further, the GI50 is 43.2 µM (inactive) in assay [13]; 23.6 µM (inactive) in [14]; 54.8 µM (inactive) in assay [15]; 13.9 µM (inactive) in [16]; > 38.5 µM (inactive) in [17]; 13.2 µM (inactive) in assay [18]. The GI50 in assay [19] is 36 µM; in assay [20] it was > 34.8 µM (inactive).

On to `c1ccc2c(c1)nc1n2CNCC1`, for which the GI50 in assay [1] is 68.5 µM (inactive); in assay [2], > 100 µM (inactive); in assay [3], 26.4 µM (inactive); in assay [4], 58.5 µM (inactive); in assay [5] it was > 100 µM (inactive); in assay [6], > 100 µM (inactive). The GI50 in [7] was > 100 µM (inactive); in assay [8] it was 90.8 µM (inactive); in assay [9] it was 49 µM (inactive); in assay [10] it was 45.7 µM (inactive); in assay [11], > 100 µM (inactive); in [12] it was > 100 µM (inactive). The GI50 in [13] is > 100 µM (inactive); in assay [14], > 100 µM (inactive); in [15] it was > 100 µM (inactive); in assay [16] it was 29.7 µM (inactive); in assay [17] it was 79.3 µM (inactive); in assay [18], 24.2 µM (inactive). For the same molecule, the GI50 in assay [19] is 50.2 µM; in [20], > 100 µM (inactive).

For the molecule `C(=N/NC1=NCCN1)/c1c2ccccc2c(/C=N\NC2=NCCN2)c2ccccc12`, the GI50 in [1] is 0.0528 µM (active); in assay [2] it was 0.177 µM (active); in [3] it was 0.0826 µM (active); in assay [4], 0.252 µM (active); in [5], 0.0731 µM (active); in assay [6] it was 0.184 µM (active). The GI50 is 0.0885 µM (active) in assay [7]; 0.155 µM (active) in assay [8]; 0.526 µM (active) in [9]; 0.0568 µM (active) in [10]; 0.302 µM (active) in assay [11]; 0.26 µM (active) in assay [12]. Also, the GI50 in assay [13] was 0.0902 µM (active); in [14] it was 0.147 µM (active); in assay [15], 88.3 µM (inactive); in [16], 0.00879 µM (active); in assay [17], 9.44 µM (inactive); in assay [18], 0.0931 µM (active). Also, the GI50 in assay [19] was 19.7 µM; in [20], 0.06 µM (active).

In the case of `CCCCCCCCCc1cc(O)c(O)cc1CCCCCCCCC`, the GI50 in assay [1], in assay [2], in assay [3], in assay [4], in assay [5] and in assay [6] was > 10 µM (inactive) in each case. In addition, the GI50 in assay [7], in assay [8], in assay [9], in [10], in assay [11] and in assay [12] was > 10 µM (inactive) each time. For the same molecule, the GI50 in [13], in [14], in [15], in [16], in assay [17] and in [18] was > 10 µM (inactive) throughout. Also, the GI50 in assay [19] was more than 10 µM; in assay [20], > 10 µM (inactive).

For the molecule `[O-]/[N+](=C\c1ccccc1OC(=S)S)c1ccc(Cl)cc1`, the GI50 in assay [1] was 0.22 µM (active); in assay [2], > 100 µM (inactive); in assay [3], 5.7 µM (inactive); in assay [4], 8.24 µM (inactive); in [5], 2.87 µM (inactive); in [6], 18.7 µM (inactive). The GI50 in [7] was 26.7 µM (inactive); in assay [8], 45.7 µM (inactive); in assay [9], 13.6 µM (inactive); in assay [10] it was 13 µM (inactive); in [11], 13.9 µM (inactive); in assay [12] it was 0.224 µM (active). Also, the GI50 is 11.9 µM (inactive) in [13]; 20 µM (inactive) in assay [14]; 18.5 µM (inactive) in [15]; 21.8 µM (inactive) in assay [16]; 19.8 µM (inactive) in assay [17]; 14.9 µM (inactive) in assay [18]. In addition, the GI50 was 15.7 µM in assay [19] and 51.1 µM (inactive) in [20].

`COc1ccc2c(c1)CCCN2S(=O)(=O)c1ccccc1[N+](=O)[O-]`: the GI50 is 4.56 µM (inactive) in [1]; 24 µM (inactive) in [2]; 29.4 µM (inactive) in [3]; 53.7 µM (inactive) in [4]; 42.6 µM (inactive) in assay [5]; 47.8 µM (inactive) in assay [6]. The GI50 is 10.7 µM (inactive) in [7]; 25.6 µM (inactive) in assay [8]; > 89.5 µM (inactive) in [9]; 21.6 µM (inactive) in [10]; 45.7 µM (inactive) in assay [11]; 41.8 µM (inactive) in assay [12]. Further, the GI50 in assay [13] was 47.8 µM (inactive); in [14], 22.5 µM (inactive); in assay [15], 19.2 µM (inactive); in assay [16], 11.1 µM (inactive); in [17] it was 43 µM (inactive); in assay [18], 32.4 µM (inactive). The GI50 in assay [19] is 14.3 µM; in [20], 43.7 µM (inactive).

Consider `Cc1cn(C2CC(O)C(Cn3nncc3Cn3cnc4c(N)ncnc43)O2)c(=O)[nH]c1=O` (stereo not given), for which the GI50 in [1] is > 100 µM (inactive); in assay [2], > 100 µM (inactive); in assay [3], > 100 µM (inactive); in assay [4], 26.4 µM (inactive); in assay [5], > 100 µM (inactive); in assay [6] it was > 100 µM (inactive). Further, the GI50 in assay [7], in assay [8], in assay [9], in assay [10], in assay [11] and in assay [12] was > 100 µM (inactive) throughout. For the same molecule, the GI50 in assay [13], in assay [14], in [15], in assay [16], in [17] and in assay [18] was > 100 µM (inactive) throughout. Also, the figures for the GI50 in [19] and in assay [20] were more than 100 µM and > 100 µM (inactive), respectively.

Values taken from ChEMBL document CHEMBL1201862, “PubChem BioAssay data set” (2004).
